Assay results reported in ChEMBL document CHEMBL1909046, “DrugMatrix in vitro pharmacology data”.

Columns and labels:
Cytochrome P450 2E1 = Cytochrome P450 2E1 (Homo sapiens, UniProt P05181); conditions: bti-tn-5b1-4; further: in other assays of this panel Not Active means under 50% inhibition at 10 µM
[1] = biological target: T1, Vasoactive intestinal polypeptide receptor 1 (Homo sapiens, UniProt P32241); type: cell membranes, Membrane; conditions: ht-29; further: in other assays of this panel Not Active means under 50% inhibition at 10 µM
T1 sequence (P32241 whole entry): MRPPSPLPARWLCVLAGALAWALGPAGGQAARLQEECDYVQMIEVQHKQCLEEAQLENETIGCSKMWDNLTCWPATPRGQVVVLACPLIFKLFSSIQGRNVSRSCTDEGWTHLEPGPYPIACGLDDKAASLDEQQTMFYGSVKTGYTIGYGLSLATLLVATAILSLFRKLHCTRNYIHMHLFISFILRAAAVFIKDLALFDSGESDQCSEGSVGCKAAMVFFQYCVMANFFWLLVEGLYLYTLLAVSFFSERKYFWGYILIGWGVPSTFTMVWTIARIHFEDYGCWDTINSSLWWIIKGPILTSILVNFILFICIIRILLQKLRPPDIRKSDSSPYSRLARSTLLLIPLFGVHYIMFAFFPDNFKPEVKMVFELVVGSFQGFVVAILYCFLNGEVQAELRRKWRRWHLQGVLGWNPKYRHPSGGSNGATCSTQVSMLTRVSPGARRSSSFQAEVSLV

[2] = biological target: Protein kinase C alpha type (Homo sapiens, UniProt P17252); type: cell-based; conditions: sf9;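 further: inhibition of PKCalpha kinase activity measured in an enzyme assay with histone as the phosphorylation substrate; in other assays of this panel Not Active means under 50% inhibition at 10 µM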
Thromboxane-A synthase = biological target: T2, Thromboxane-A synthase (Homo sapiens, UniProt P24557); experiment: biochemical; type: tissue-based, Platelet; conditions: platelet;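 further: enzyme inhibition assay with PGH2 supplied as substrate; in other assays of this panel Not Active means under 50% inhibition at 10 µM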
T2 sequence (P24557 whole entry): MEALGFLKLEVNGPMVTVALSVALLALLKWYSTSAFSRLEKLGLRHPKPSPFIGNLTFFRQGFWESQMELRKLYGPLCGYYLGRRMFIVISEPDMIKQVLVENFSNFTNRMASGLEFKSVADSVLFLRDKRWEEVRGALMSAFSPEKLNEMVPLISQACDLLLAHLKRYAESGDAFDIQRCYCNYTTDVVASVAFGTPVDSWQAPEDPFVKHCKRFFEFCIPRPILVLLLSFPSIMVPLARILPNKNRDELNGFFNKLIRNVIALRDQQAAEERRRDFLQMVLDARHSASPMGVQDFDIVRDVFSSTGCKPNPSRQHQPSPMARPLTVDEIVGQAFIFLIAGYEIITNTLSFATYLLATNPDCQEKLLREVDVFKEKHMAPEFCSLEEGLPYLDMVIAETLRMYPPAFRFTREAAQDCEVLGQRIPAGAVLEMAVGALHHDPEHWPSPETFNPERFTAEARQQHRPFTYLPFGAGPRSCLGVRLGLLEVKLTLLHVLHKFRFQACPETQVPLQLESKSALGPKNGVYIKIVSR

[3] = biological target: Beta-2 adrenergic receptor (Homo sapiens, UniProt P07550); experiment: DRUGMATRIX: Adrenergic beta2 radioligand binding (ligand: [3H] CGP-12177); type: cell membranes, CHO, Membrane; conditions: cho; Not Active = under 50% inhibition at 10 µM
[4] = biological target: Receptor tyrosine-protein kinase erbB-2 (Homo sapiens, UniProt P04626); experiment: biochemical; type: cell-based, Insect cells; conditions: insect cells
[5] = biological target: Beta-3 adrenergic receptor (Homo sapiens, UniProt P13945); experiment: DRUGMATRIX: Adrenergic beta3 radioligand binding (ligand: [125I] Cyanopindolol); type: cell membranes, HEK293, Membrane; conditions: hek293; Not Active = under 50% inhibition at 10 µM
Chain of Beta-3 adrenergic receptor (P13945 whole entry): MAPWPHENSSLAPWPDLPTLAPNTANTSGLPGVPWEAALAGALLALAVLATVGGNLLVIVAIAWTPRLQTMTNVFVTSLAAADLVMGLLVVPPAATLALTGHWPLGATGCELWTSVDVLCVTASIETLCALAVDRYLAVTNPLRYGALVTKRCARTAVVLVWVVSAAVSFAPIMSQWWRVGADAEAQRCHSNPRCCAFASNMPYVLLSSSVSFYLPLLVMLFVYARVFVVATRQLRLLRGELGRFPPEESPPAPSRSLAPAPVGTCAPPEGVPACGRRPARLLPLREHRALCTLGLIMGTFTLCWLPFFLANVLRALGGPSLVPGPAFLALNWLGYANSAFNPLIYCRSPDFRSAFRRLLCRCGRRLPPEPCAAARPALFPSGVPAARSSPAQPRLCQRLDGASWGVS

Chain of Beta-2 adrenergic receptor (P07550 whole entry): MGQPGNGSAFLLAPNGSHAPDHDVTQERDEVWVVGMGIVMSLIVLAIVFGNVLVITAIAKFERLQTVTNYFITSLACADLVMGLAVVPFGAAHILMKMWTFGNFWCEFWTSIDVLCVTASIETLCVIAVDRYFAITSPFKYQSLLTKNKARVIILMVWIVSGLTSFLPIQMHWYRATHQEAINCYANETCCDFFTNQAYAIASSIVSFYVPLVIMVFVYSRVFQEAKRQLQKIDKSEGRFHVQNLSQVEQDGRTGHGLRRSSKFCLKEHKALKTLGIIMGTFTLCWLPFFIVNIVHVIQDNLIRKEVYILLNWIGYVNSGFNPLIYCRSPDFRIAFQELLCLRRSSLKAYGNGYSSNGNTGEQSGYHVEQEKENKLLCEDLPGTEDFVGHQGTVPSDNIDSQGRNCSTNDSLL
Chain of Receptor tyrosine-protein kinase erbB-2 (P04626 whole entry): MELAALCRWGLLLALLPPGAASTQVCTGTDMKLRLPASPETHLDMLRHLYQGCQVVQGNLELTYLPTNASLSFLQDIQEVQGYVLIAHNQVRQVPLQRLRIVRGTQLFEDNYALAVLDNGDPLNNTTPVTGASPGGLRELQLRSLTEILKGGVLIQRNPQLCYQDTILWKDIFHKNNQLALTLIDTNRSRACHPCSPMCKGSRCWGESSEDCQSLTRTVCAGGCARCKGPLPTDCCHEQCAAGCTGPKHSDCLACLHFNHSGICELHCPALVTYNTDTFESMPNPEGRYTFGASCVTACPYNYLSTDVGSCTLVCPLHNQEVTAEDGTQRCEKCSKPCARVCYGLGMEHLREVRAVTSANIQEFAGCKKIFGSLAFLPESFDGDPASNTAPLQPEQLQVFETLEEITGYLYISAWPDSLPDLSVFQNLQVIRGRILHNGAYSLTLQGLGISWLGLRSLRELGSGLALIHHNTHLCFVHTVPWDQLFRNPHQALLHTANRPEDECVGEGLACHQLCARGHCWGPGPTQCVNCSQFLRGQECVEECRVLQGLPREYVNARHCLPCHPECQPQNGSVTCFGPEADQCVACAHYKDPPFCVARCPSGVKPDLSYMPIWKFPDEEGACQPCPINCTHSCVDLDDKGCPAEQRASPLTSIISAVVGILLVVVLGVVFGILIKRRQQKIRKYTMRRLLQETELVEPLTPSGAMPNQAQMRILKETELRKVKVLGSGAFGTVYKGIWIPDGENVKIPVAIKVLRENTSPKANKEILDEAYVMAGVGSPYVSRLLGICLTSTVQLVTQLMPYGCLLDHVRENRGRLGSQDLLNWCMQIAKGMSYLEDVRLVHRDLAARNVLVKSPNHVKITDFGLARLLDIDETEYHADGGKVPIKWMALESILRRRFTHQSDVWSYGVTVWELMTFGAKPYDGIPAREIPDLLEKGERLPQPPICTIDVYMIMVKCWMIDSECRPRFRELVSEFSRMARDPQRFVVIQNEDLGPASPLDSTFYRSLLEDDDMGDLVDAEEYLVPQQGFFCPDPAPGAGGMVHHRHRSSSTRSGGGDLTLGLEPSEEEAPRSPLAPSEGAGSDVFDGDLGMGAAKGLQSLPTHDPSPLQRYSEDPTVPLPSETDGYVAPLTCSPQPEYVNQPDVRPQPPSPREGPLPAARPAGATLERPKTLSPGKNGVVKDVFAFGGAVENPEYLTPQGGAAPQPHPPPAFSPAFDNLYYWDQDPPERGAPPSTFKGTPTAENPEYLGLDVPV
Chain of Cytochrome P450 2E1 (P05181 whole entry): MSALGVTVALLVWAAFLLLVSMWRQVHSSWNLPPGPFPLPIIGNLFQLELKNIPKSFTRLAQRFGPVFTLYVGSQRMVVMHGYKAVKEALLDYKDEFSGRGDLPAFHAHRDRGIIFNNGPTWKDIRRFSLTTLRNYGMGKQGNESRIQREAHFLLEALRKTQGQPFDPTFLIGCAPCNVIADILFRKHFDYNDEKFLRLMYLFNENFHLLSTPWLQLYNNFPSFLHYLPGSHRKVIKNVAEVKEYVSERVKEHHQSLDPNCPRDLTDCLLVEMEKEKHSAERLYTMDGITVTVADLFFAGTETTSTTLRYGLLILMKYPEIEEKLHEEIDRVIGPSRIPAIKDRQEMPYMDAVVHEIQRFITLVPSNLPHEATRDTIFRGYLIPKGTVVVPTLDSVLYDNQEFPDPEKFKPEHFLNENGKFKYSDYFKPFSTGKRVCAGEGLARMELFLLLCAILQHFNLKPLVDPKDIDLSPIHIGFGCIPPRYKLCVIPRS

CCC1=C(C)CN(C(=O)NCCc2ccc(S(=O)(=O)NC(=O)N[C@H]3CC[C@H](C)CC3)cc2)C1=O [GLIMEPIRIDE]
Not Active: IC50 (Cytochrome P450 2E1) | Ki (Cytochrome P450 2E1) | IC50 [1] | IC50 [2] | IC50 (Thromboxane-A synthase) | IC50 [3] | IC50 [4] | IC50 [5]

Nc1cc(-c2ccncc2)c[nH]c1=O [INAMRINONE]
Not Active: IC50 (Cytochrome P450 2E1) | Ki (Cytochrome P450 2E1) | IC50 [1] | IC50 [2] | IC50 (Thromboxane-A synthase) | IC50 [3] | IC50 [4] | IC50 [5]

CCCCC1=NC2(CCCC2)C(=O)N1Cc1ccc(-c2ccccc2-c2nnn[nH]2)cc1 [IRBESARTAN]
Not Active: IC50 (Cytochrome P450 2E1) | Ki (Cytochrome P450 2E1) | IC50 [1] | IC50 [2] | IC50 (Thromboxane-A synthase) | IC50 [3] | IC50 [4] | IC50 [5]

CN1CCC(=C2c3ccccc3CC(=O)c3sccc32)CC1 [KETOTIFEN]
Not Active: IC50 (Cytochrome P450 2E1) | Ki (Cytochrome P450 2E1) | IC50 [1] | IC50 [2] | IC50 (Thromboxane-A synthase) | IC50 [3] | IC50 [4] | IC50 [5]

C[N+](C)(C)C[C@H](O)CC(=O)[O-] [LEVOCARNITINE]
Not Active: IC50 (Cytochrome P450 2E1) | Ki (Cytochrome P450 2E1) | IC50 [1] | IC50 [2] | IC50 (Thromboxane-A synthase) | IC50 [3] | IC50 [4] | IC50 [5]

C[C@H]1COc2c(N3CCN(C)CC3)c(F)cc3c(=O)c(C(=O)O)cn1c23.C[C@H]1COc2c(N3CCN(C)CC3)c(F)cc3c(=O)c(C(=O)O)cn1c23.O [LEVOFLOXACIN]
Not Active: IC50 (Cytochrome P450 2E1) | Ki (Cytochrome P450 2E1) | IC50 [1] | IC50 [2] | IC50 (Thromboxane-A synthase) | IC50 [3] | IC50 [4] | IC50 [5]

CCn1cc(C(=O)O)c(=O)c2cc(F)c(N3CCNC(C)C3)c(F)c21 (stereo not given) [LOMEFLOXACIN]
Not Active: IC50 (Cytochrome P450 2E1) | Ki (Cytochrome P450 2E1) | IC50 [1] | IC50 [2] | IC50 (Thromboxane-A synthase) | IC50 [3] | IC50 [4] | IC50 [5]

CN1CCCC(CN2c3ccccc3Sc3ccccc32)C1 (stereo not given) [MEPAZINE]
Not Active: IC50 (Cytochrome P450 2E1) | Ki (Cytochrome P450 2E1) | IC50 [1] | IC50 [2] | IC50 (Thromboxane-A synthase) | IC50 [3] | IC50 [4] | IC50 [5]

Cc1cccc(C)c1NC(=O)C1CCCCN1C (stereo not given) [MEPIVACAINE]
Not Active: IC50 (Cytochrome P450 2E1) | Ki (Cytochrome P450 2E1) | IC50 [1] | IC50 [2] | IC50 (Thromboxane-A synthase) | IC50 [3] | IC50 [4] | IC50 [5]

CN(C)C(=N)NC(=N)N [METFORMIN]
Not Active: IC50 (Cytochrome P450 2E1) | Ki (Cytochrome P450 2E1) | IC50 [1] | IC50 [2] | IC50 (Thromboxane-A synthase) | IC50 [3] | IC50 [4] | IC50 [5]

CC(C)(C)NCC(O)COc1cccc2c1CC(O)C(O)C2 (stereo not given) [NADOLOL]
Not Active: IC50 (Cytochrome P450 2E1) | Ki (Cytochrome P450 2E1) | IC50 [1] | IC50 [2] | IC50 (Thromboxane-A synthase) | IC50 [3] | IC50 [4] | IC50 [5]

C[C@]12CC[C@H]3[C@@H](CCC4=CC(=O)CC[C@@H]43)[C@@H]1CC[C@@H]2O [NANDROLONE]
Not Active: IC50 (Cytochrome P450 2E1) | Ki (Cytochrome P450 2E1) | IC50 [1] | IC50 [2] | IC50 (Thromboxane-A synthase) | IC50 [3] | IC50 [4] | IC50 [5]

CN(C)C(=O)Oc1cccc([N+](C)(C)C)c1.[Br-] [NEOSTIGMINE BROMIDE]
Not Active: IC50 (Cytochrome P450 2E1) | Ki (Cytochrome P450 2E1) | IC50 [1] | IC50 [2] | IC50 (Thromboxane-A synthase) | IC50 [3] | IC50 [4] | IC50 [5]

NC(=O)c1cccnc1 [NIACINAMIDE]
Not Active: IC50 (Cytochrome P450 2E1) | Ki (Cytochrome P450 2E1) | IC50 [1] | IC50 [2] | IC50 (Thromboxane-A synthase) | IC50 [3] | IC50 [4] | IC50 [5]

CS(=O)(=O)Nc1ccc([N+](=O)[O-])cc1Oc1ccccc1 [NIMESULIDE]
Not Active: IC50 (Cytochrome P450 2E1) | Ki (Cytochrome P450 2E1) | IC50 [1] | IC50 [2] | IC50 (Thromboxane-A synthase) | IC50 [3] | IC50 [4] | IC50 [5]

CN1C(=O)CN=C(c2ccccc2)c2cc([N+](=O)[O-])ccc21 [NIMETAZEPAM]
Not Active: IC50 (Cytochrome P450 2E1) | Ki (Cytochrome P450 2E1) | IC50 [1] | IC50 [2] | IC50 (Thromboxane-A synthase) | IC50 [3] | IC50 [4] | IC50 [5]

COc1ccc2c(c1OC)C(=O)O[C@@H]2[C@H]1c2c(cc3c(c2OC)OCO3)CCN1C [NOSCAPINE]
Not Active: IC50 (Cytochrome P450 2E1) | Ki (Cytochrome P450 2E1) | IC50 [1] | IC50 [2] | IC50 (Thromboxane-A synthase) | IC50 [3] | IC50 [4] | IC50 [5]

C[C@@H]1O[C@@H](O[C@H]2C[C@@H](O)[C@]3(CO)[C@H]4[C@H](O)C[C@]5(C)[C@@H](C6=CC(=O)OC6)CC[C@]5(O)[C@@H]4CC[C@]3(O)C2)[C@H](O)[C@H](O)[C@H]1O [OUABAIN]
Not Active: IC50 (Cytochrome P450 2E1) | Ki (Cytochrome P450 2E1) | IC50 [1] | IC50 [2] | IC50 (Thromboxane-A synthase) | IC50 [3] | IC50 [4] | IC50 [5]

NC(=O)N1c2ccccc2CC(=O)c2ccccc21 [OXCARBAZEPINE]
Not Active: IC50 (Cytochrome P450 2E1) | Ki (Cytochrome P450 2E1) | IC50 [1] | IC50 [2] | IC50 (Thromboxane-A synthase) | IC50 [3] | IC50 [4] | IC50 [5]

COc1ccnc(C[S+]([O-])c2nc3ccc(OC(F)F)cc3[nH]2)c1OC (stereo not given) [PANTOPRAZOLE]
Not Active: IC50 (Cytochrome P450 2E1) | Ki (Cytochrome P450 2E1) | IC50 [1] | IC50 [2] | IC50 (Thromboxane-A synthase) | IC50 [3] | IC50 [4] | IC50 [5]
